Laboratory results as given in PubChem BioAssay (NCI).
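48-hour exposure; five concentrations; linearly interpolated endpoints. TGI: total growth inhibition.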

How the values were obtained:
Test in all cases: DTP human tumour cell line panel, 48 h
CCRF-CEM leukemia = system: CCRF-CEM leukemia
SNB-78 CNS = system: SNB-78 CNS
DMS 114 small cell lung = system: DMS 114 small cell lung
LXFL 529 NSCLC = system: LXFL 529 NSCLC
CAKI-1 renal = system: CAKI-1 renal
IGROV1 ovarian = system: IGROV1 ovarian
DMS 273 small cell lung = system: DMS 273 small cell lung
XF 498 CNS = system: XF 498 CNS

| Structure (SMILES) | TGI (CCRF-CEM leukemia) [µM] | TGI (SNB-78 CNS) [µM] | TGI (DMS 114 small cell lung) [µM] | TGI (LXFL 529 NSCLC) [µM] | TGI (CAKI-1 renal) [µM] | TGI (IGROV1 ovarian) [µM] | TGI (DMS 273 small cell lung) [µM] | TGI (XF 498 CNS) [µM] |
| --- | --- | --- | --- | --- | --- | --- | --- | --- |
| Cc1cccc(/C=N/N=C(\N)NO)n1 | > 100 | > 100 | > 100 | 53.1 | > 100 | > 100 | > 100 | > 100 |
| CC(C(=O)c1ccc(O)cc1)C1(O)C(=O)Nc2c(Cl)cc(Cl)cc21 (stereo not given) | 74.7 | > 85.5 | 24.2 | > 93.7 | > 100 | > 100 | > 100 | 47.8 |
| CCOC(=O)C1=C(Nc2cccc3ccccc23)OCC1=O | > 100 | > 100 | – | > 100 | > 100 | > 100 | > 100 | > 100 |
| CC(C)(C)[Si](C)(C)O/N=C\c1cccc(O[Si](C)(C)C(C)(C)C)c1 | 41.7 | 30.8 | 35.6 | 29.1 | 42.2 | 34.9 | 32.6 | 32.7 |
| COc1ccc(C2C(C(=O)O)=C(CO)Oc3cc4c(cc32)OCO4)c(OC)c1 (stereo not given) | > 100 | > 100 | > 100 | – | > 100 | > 100 | > 100 | > 100 |
| CNC(=O)NCCCCC(NC(=O)OCc1ccccc1)C(=O)OCc1ccccc1 (stereo not given) | 38.5 | 70.8 | 65.7 | > 100 | 48.6 | 76.4 | > 100 | 33.2 |
| [N-]=[N+]=Nc1nnc(CCCCc2nnc(N=[N+]=[N-])o2)o1 | > 100 | > 100 | > 100 | > 100 | – | – | – | > 100 |
| O=C(CC(=O)c1cccc2ccccc12)C(=O)Nc1nccs1 | > 100 | > 100 | – | > 100 | > 100 | > 100 | > 100 | – |
| CC(C)(C)CC(C)(C)c1cc2c(O)c(c1)Cc1cc(C(C)(C)CC(C)(C)C)cc(c1O)Cc1cc(C(C)(C)CC(C)(C)C)cc(c1O)Cc1cc(C(C)(C)CC(C)(C)C)cc(c1O)Cc1cc(C(C)(C)CC(C)(C)C)cc(c1O)Cc1cc(C(C)(C)CC(C)(C)C)cc(c1O)Cc1cc(C(C)(C)CC(C)(C)C)cc(c1O)Cc1cc(C(C)(C)CC(C)(C)C)cc(c1O)C2 | > 100 | > 100 | – | > 100 | – | > 100 | > 100 | > 100 |
| CC(=O)Nc1ccc(S(=O)(=O)N/N=C(\C)CN2C(=O)c3ccccc3C2=O)cc1 | > 100 | > 100 | – | > 100 | > 100 | > 100 | > 100 | – |
| C=CCC(O)c1cc(OC)ccc1OC (stereo not given) | > 100 | – | > 100 | > 100 | > 100 | > 100 | > 100 | > 100 |
| CCOC(=O)/C(=C/c1ccccc1)N(CC)CC | > 100 | > 100 | > 100 | > 100 | > 100 | > 100 | > 100 | > 100 |
| CCOc1cc2cnc3c4cc(OC)c(OC)cc4ccc3c2cc1OC | 88.6 | > 100 | > 100 | > 100 | > 100 | > 100 | – | – |
| CC(C)=CC1(C)/C(=N\O)C(C)(CC(C)C)C(=O)N1O (stereo not given) | > 100 | > 100 | > 100 | > 100 | > 100 | > 100 | > 100 | > 100 |
| NC(CCSCCF)C(=O)O (stereo not given) | > 100 | > 100 | > 100 | > 100 | > 100 | > 100 | > 100 | – |
| CC(=O)OCc1ncccc1C(OC(C)=O)OC(C)=O | > 100 | > 100 | > 100 | > 100 | > 100 | > 100 | > 100 | > 100 |
| CC1=C(c2ccccc2)CON(c2ccccc2)C1 | > 100 | > 100 | > 100 | > 100 | > 100 | > 100 | – | > 100 |
